Target: BRD2 (Homo sapiens, UniProt P25440)
Test: BRD2 levels by Western blot in Hep G2 and MDA-MB-231 cells (incl. RNA interference)
Assay type: cell-based
Parameters: endogenous in cells; host or cells: Hep G2; MDA-MB-231
Description: Cells were washed with PBS and lysed in lysis buffer (50 mM Tris-HCl, pH 7.4, 150 mM NaCl, 1% Triton X-100, 1% sodium deoxycholate, 0.1% SDS) with complete protease inhibitor cocktail (Roche, 11836170001) for 30 min on ice. For Ramos cells, cell pellets were lysed in lysis buffer (50 mM Tris-HCl, pH 8, 150 mM NaCl, 1% NP-40, 0.5% sodium deoxycholate) with complete protease inhibitor cocktail. After centrifugation at 16,000 x g, the supernatant was transferred into a new tube and the protein concentration was determined by DC protein assay (BIO-RAD, 5000116). Proteins were separated by SDS-PAGE and transferred to a PVDF membrane (Thermo scientific, 0.45 μm, 88518). For PDEδ, BRD2, GAPDH, BRD4, Vinculin and BTK, the membranes were blocked with Intercept® Blocking Buffer (LI-COR Biosciences, 927-70001) at room temperature for 1 h. The primary antibodies for these proteins were diluted with Intercept® Blocking Buffer (1:500 for PDEδ, 1:3000 for Vinculin, and 1:1000 for other proteins) and incubated with the membranes overnight at 4 °C. Membranes were washed with PBS + 0.1% Tween 20 (PBS-T) five times and incubated with secondary antibodies conjugated to IRDye® Infrared Fluorescent Dyes (1:5000, LI-COR Biosciences) at room temperature for 1 h with protection from light. After washing the membrane, signals were visualized using the ChemiDoc MP Imaging System (BIO-RAD Laboratories). For detection of LC3B, BRD3, BLK, DCAF11, DDB1 RBX1, FIP200, V5- and FLAG-Tag the membranes were blocked with 5% milk in PBS-T at room temperature for 1 h. The primary antibodies for these proteins were diluted in 5% milk in PBS-T buffer (1:200 for BRD3, 1:1000 for other proteins) and incubated with the membranes overnight at 4 °C. Membranes were washed with PBS-T five times and incubated with HRP secondary antibodies (1:1500) at room temperature for 1 h. After washing the membrane, protein detection was performed using Western blotting detection reagent (Thermo Scientific, 34095) and the ChemiDoc MP Imaging System (BIO-RAD). Relative band intensities were quantified using Image Lab (BIO-RAD).

Chain of BRD2 (P25440 whole entry): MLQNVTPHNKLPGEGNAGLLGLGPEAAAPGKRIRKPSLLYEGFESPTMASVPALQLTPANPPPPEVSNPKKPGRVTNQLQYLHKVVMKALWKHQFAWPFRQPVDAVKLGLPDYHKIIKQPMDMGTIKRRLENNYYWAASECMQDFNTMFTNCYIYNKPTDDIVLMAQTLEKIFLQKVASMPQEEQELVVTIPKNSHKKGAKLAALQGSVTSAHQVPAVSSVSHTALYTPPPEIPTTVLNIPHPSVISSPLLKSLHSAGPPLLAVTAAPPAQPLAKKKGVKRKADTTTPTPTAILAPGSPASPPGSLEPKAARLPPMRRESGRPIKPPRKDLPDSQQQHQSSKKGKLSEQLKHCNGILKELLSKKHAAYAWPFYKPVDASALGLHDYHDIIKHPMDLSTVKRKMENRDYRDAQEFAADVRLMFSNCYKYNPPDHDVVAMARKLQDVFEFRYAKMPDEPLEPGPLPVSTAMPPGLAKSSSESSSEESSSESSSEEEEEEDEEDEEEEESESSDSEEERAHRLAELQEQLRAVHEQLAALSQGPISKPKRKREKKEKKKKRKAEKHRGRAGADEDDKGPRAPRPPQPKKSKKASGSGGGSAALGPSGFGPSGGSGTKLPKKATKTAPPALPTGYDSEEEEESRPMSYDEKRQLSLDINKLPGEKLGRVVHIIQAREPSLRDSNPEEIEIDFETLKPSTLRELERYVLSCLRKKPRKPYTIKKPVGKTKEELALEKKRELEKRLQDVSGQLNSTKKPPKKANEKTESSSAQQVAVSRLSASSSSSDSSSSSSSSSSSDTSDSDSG

Cc1sc2c(c1C)C(c1ccc(Cl)cc1)=N[C@@H](CC(=O)NCCOCCOCCOCCOCCNC(=O)COc1c(Br)cc(/C=C3\C(=O)Nc4ccc(Br)cc43)cc1Br)c1nnc(C)n1-2 [Compound 9]
BRD2 depletion in Hep G2 and MDA-MB-231 cells (4 h): BRD2 depletion was also observed
BRD2 degradation after siRNA-mediated depletion of RBX1 (MDA-MB-231 cells, RBX1 siRNA 30 nM, 48 h, 3 μM compound 9, 4 h): did not induce degradation of BRD2 anymore
